Patent US20180290961A1, “METHOD AND SYSTEM FOR OBTAINING A CARBOXYLIC ACID WHICH IS PRODUCED IN A FERMENTATION PROCESS” (THYSSENKRUPP INDUSTRIAL SOLUTIONS AG, priority 2015, published 2018)

What was measured:
[1] = precipitation of fermentatively prepared carboxylic acid after acidification; assay type: physicochemical
From the text: The invention is based on the observation that sparingly soluble carboxylic acids such as fumaric acid and adipic acid cannot be worked up satisfactorily using the known purification methods. […] In order to compensate for the resulting loss of product, alternative purification methods are necessary.

physchem = details: 20 °C, water

| concentration above which the acid precipitates after acidification [1] | solubility (physchem) | SMILES |
| --- | --- | --- |
| – | ≤ 50 mg/mL | N[C@@H](Cc1c[nH]cn1)C(=O)O [histidine] |
| – | ≤ 50 mg/mL | CC[C@H](C)[C@H](N)C(=O)O [isoleucine] |
| – | ≤ 50 mg/mL | CC(C)C[C@H](N)C(=O)O [leucine] |
| – | ≤ 50 mg/mL | CSCC[C@H](N)C(=O)O [methionine] |

More lines, now with the values behind:

| SMILES | concentration above which the acid precipitates after acidification [1] | solubility (physchem) |
| --- | --- | --- |
| O=C(O)/C=C/C(=O)O [fumaric acid] | about 5 g/l | ≤ 15 mg/mL |
| N[C@@H](Cc1ccccc1)C(=O)O [phenylalanine] | – | ≤ 50 mg/mL |
| O=C(O)c1ccccc1O [salicylic acid] | – | ≤ 15 mg/mL |
